Where no end group is shown, it is not given here. [ ]: non-standard residue; d: D form. Cit = NC(=O)NCCC[C@H](N)C(=O)O
Assays:
Assay type in all cases: binding, human
[1] = tested on: anti-citrullinated protein autoantibodies (ACPAs); assay: ELISA of reactive citrullinated fibrin peptides with the 20 individual sera of mixtures A and B; details: for Number of positive sera: sera with delta OD not <0.25 out of sera tested (20, or 10 of mixture A only); for delta OD: best coating buffer per peptide
Experimental: The 14 peptides carrying the most reactive epitopes (delta OD≧0.5 for one or other of the mixtures of serum (A and B) with at least one of the three coating buffers) were tested independently with the 20 sera constituting the mixtures A and B, in order to evaluate the reactivity profile of each of these peptides. The tests were carried out by ELISA under the same conditions as in Example 2 above, with the exception that, for each pair of peptides, the coating buffer selected was that that had made it possible to obtain the strongest reactivity with respect to this peptide during the screening (the buffer for which the sum of the delta ODs obtained respectively for the serum mixtures A and B was at a maximum). […] Thus, for each serum, the dilution that made it possible to obtain an OD of 1 by ELISA on deiminated fibrinogen was selected (Nogueira L, 2002, mentioned above). The dilutions ranged from 1/20 to 1/2700.

[2] = tested on: anti-citrullinated protein autoantibodies (ACPAs); assay: ELISA of citrullinated/native fibrin peptide pairs with serum mixtures A and B and control mixture (delta OD); details: mean of two determinations
Experimental: Each pair of peptides (citrullinated and noncitrullinated) was assayed by ELISA with a mixture, in equal parts, of 10 sera having no ACPAs (control mixture) and with the 2 mixtures A and B described in Example 1.
Each pair of peptides (native and citrullinated form) was tested on the same plate and a pair of control peptides—citrullinated “filaggrin” peptide cfc6 and its corresponding native peptide cf0 (Schellekens G A, 1998, mentioned above)—was included in each experiment, which made it possible to calculate an inter-assay coefficient of variation and to perform corrections.
All the incubations were carried out for 1 h at 4° C. and were followed by washing in PBS-0.1% Tween. The peroxidase activity was visualized with a solution of ortho-phenylenediamine (2 mg/ml—Sigma) in hydrogen peroxide (0.03%—Sigma). The reaction was stopped after 5 minutes by adding 4M sulfuric acid, and the optical density (OD) at 492 nm was measured by virtue of an automatic spectrophotometer (Multiskan, Thermo Labsystems).
The specific reactivity of the mixtures of sera with regard to the citrullinated peptides corresponded to the difference between the OD obtained with the citrullinated peptide and that obtained with the corresponding native peptide (delta OD). The results correspond to the mean of two determinations. Any citrullinated peptide making it possible to obtain a delta OD of greater than 0.250 for at least one of the two mixtures A and B after coating in at least one of the three buffers, was considered to be reactive.

[3] = tested on: anti-citrullinated protein autoantibodies (ACPAs); assay: ELISA comparing amidated and nonamidated β60-74Cit60,72,74 with serum mixtures A and B; details: coating in PBS, versus noncitrullinated β60-74, mean of two experiments
Text: ELISA plates were coated with the peptide β60-74Cit60,72,74, in which the C-terminal function of the carboxy-terminal citrullyl residue is not amidated (form carrying a terminal COOH function, hereinafter referred to as “nonamidated form”), with the peptide […], in which the C-terminal function of the carboxy-terminal citrullyl residue is amidated (form carrying a terminal CONH2 function, hereinafter referred to as “amidated form”) and the noncitrullinated peptide β60-74 (in which the C-terminal function of the carboxy-terminal arginyl residue is not amidated), all diluted in PBS. The serum mixtures A and B described in Example 1 were tested according to the method described in Example 2. As in Example 2, the specific reactivity of the peptide in nonamidated form or in amidated form corresponded to the difference between the OD obtained with these two citrullinated peptides and that obtained with the noncitrullinated peptide β60-74. […] The results correspond to the mean of two experiments, each comprising two determinations.

[4] = Mixture A of sera 1/50, coating buffer PBS pH 7.4
[5] = Mixture A of sera 1/50, coating buffer acetate pH 5.0
[6] = Mixture A of sera 1/50, coating buffer carbonate pH 9.0
[7] = Mixture B of sera 1/50, coating buffer PBS pH 7.4
[8] = Mixture B of sera 1/50, coating buffer acetate pH 5.0
[9] = Mixture B of sera 1/50, coating buffer carbonate pH 9.0

Substance | Number of positive sera [1] | delta OD ([1]; serum 97.0323, dilution 1/120) | delta OD ([1]; serum 97.1474, dilution 1/20) | delta OD (citrullinated minus native peptide, 492 nm) [2, 4] | delta OD (citrullinated minus native peptide, 492 nm) [2, 5] | delta OD (citrullinated minus native peptide, 492 nm) [2, 6] | delta OD (citrullinated minus native peptide, 492 nm) [2, 7] | delta OD (citrullinated minus native peptide, 492 nm) [2, 8] | delta OD (citrullinated minus native peptide, 492 nm) [2, 9] | delta OD ([1]; serum 97.0311, dilution 1/200) | delta OD ([1]; serum 97.1210, dilution 1/300) | further results
β281-295Cit285,294: citrullinated synthetic peptide, fibrin β-chain residues 281-295 (second series) (VIQN[Cit]QDGSVDFG[Cit]K) | 6/20 | 1.16 | 0.36 | 0.60 | 0.12 | 0.61 | 0.75 | 0.11 | 0.71 |  |  | delta OD ([1]; serum 97.0459, dilution 1/60): 2.22; delta OD ([1]; serum 97.0506, dilution 1/75): 1.80; delta OD ([1]; serum 97.0524, dilution 1/200): 0.25; delta OD ([1]; serum 97.0794, dilution 1/50): 0.26
α621-635Cit621,627,630: citrullinated synthetic peptide, fibrin α-chain residues 621-635; fits SEQ ID NO: 12 X1GHAKSX2PVX3GIHTS ([Cit]GHAKS[Cit]PV[Cit]GIHTS) | 10/20 |  | 0.59 | 1.57 | 0.25 | 1.17 | 1.51 | 0.18 | 1.20 | 0.37 | 0.37 | delta OD ([1]; serum 97.0169, dilution 1/400): 0.80; delta OD ([1]; serum 97.0244, dilution 1/2700): 0.50; delta OD ([1]; serum 97.0388, dilution 1/50): 2.71; delta OD ([1]; serum 97.0468, dilution 1/700): 0.81; delta OD ([1]; serum 97.0796, dilution 1/500): 0.69; delta OD ([1]; serum 97.0907, dilution 1/300): 1.04; delta OD ([1]; serum 97.1548, dilution 1/60): 3.29
α501-515Cit510,512: citrullinated synthetic peptide, fibrin α-chain residues 501-515; fits SEQ ID NO: 3 SGIGTLDGFX1HX2HPD (SGIGTLDGF[Cit]H[Cit]HPD) | 9/20 | 3.23 |  | 0.92 | 0.16 | 0.15 | 2.60 | 0.72 | 0.79 |  |  | delta OD ([1]; serum 95.0256, dilution 1/35): 2.37; delta OD ([1]; serum 97.0388, dilution 1/50): 2.88; delta OD ([1]; serum 97.0506, dilution 1/75): 0.44; delta OD ([1]; serum 97.0524, dilution 1/200): 2.85; delta OD ([1]; serum 97.0530, dilution 1/50): 0.69; delta OD ([1]; serum 97.0794, dilution 1/50): 3.30; delta OD ([1]; serum 97.1436, dilution 1/150): 2.80; delta OD ([1]; serum 97.1715, dilution 1/300): 1.79
β210-224Cit224: citrullinated synthetic peptide, fibrin β-chain residues 210-224 (QKLESDVSAQMEYC[Cit]) | 6/20 | 0.36 |  | 0.29 | 0.25 | 1.14 | 0.60 | 0.00 | 1.56 | 0.46 | 0.72 | delta OD ([1]; serum 97.0796, dilution 1/500): 0.67; delta OD ([1]; serum 97.0907, dilution 1/300): 0.33; delta OD ([1]; serum 97.1795, dilution 1/50): 0.49
β60-74Cit60, 72, 74 nonamidated: citrullinated synthetic peptide, fibrin β-chain residues 60-74, C-terminal citrullyl not amidated (terminal COOH) (RPAPPPISGGGYRAR; HELM PEPTIDE1{[Cit].P.A.P.P.P.I.S.G.G.G.Y.[Cit].A.[Cit]}$$$$V2.0; N-terminus assumed; SMILES CC[C@H](C)[C@H](NC(=O)[C@@H]1CCCN1C(=O)[C@@H]1CCCN1C(=O)[C@@H]1CCCN1C(=O)[C@H](C)NC(=O)[C@@H]1CCCN1C(=O)[C@@H](N)CCCNC(N)=O)C(=O)N[C@@H](CO)C(=O)NCC(=O)NCC(=O)NCC(=O)N[C@@H](Cc1ccc(O)cc1)C(=O)N[C@@H](CCCNC(N)=O)C(=O)N[C@@H](C)C(=O)N[C@@H](CCCNC(N)=O)C(=O)O) |  |  |  |  |  |  |  |  |  |  |  | delta OD ([3]; Mixture A): 0.30; delta OD ([3]; Mixture B): 1.16
α411-425Cit425: citrullinated synthetic peptide, fibrin α-chain residues 411-425 (GTFEEVSGNVSPGT[Cit]) | 1/20 |  |  | 0.16 | 0.09 | 0.56 | 0.66 | 0.38 | 0.43 |  | 0.84 | 
α259-273Cit263,271: citrullinated synthetic peptide, fibrin α-chain residues 259-273 (second series) (MELE[Cit]PGGNEIT[Cit]GG) | 13/20 |  | 0.39 | 0.60 | 0.14 | 0.12 | 0.69 | 0.21 | 0.20 | 0.29 |  | delta OD ([1]; serum 97.0468, dilution 1/700): 0.32
α588-602Cit591: citrullinated synthetic peptide, fibrin α-chain residues 588-602 (second series) (SYN[Cit]GDSTFESKSYK) | 2/20 |  |  | 0.16 | 0.05 | 0.36 | 0.33 | 0.06 | 0.67 |  |  | delta OD ([1]; serum 97.0169, dilution 1/400): 1.34; delta OD ([1]; serum 97.1795, dilution 1/50): 0.79

From US9249208B2, “Citrulline peptides derived from fibrin and recognized by rheumatoid arthritis specific autoantibodies, and the use thereof” (Biomerieux, priority 2004, dated 2016)
